Molecular target: T1, Adenosine receptor A1 (Homo sapiens) (UniProt P30542)
T1 sequence (whole entry): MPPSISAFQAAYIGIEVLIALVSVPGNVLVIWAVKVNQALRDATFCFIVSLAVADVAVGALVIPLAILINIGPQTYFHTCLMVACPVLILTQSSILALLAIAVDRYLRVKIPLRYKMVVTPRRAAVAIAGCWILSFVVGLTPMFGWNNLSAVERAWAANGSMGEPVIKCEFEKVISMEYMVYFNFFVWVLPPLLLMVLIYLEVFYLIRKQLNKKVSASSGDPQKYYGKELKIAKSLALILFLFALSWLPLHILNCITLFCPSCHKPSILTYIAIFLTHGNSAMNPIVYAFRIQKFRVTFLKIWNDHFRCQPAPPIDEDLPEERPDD
Assay: Binding affinity to recombinant human adenosine receptor A1 expressed in HEK293 cell membranes at 50 to 200 nM after 1 hr by FACS analysis relative to control

Compound: Nc1nc2c(cnn2CCCc2ccc(OCC(=O)NCCCCNC(=O)CCCCCNC(=O)COc3ccc(/C=C/C4=[N+]5C(=Cc6ccc(-c7cccs7)n6[B-]5(F)F)C=C4)cc3)cc2)c2nc(-c3ccco3)nn12
- Activity: < 25%
